Source: US5990326A, “3-oxiranyl benzoic acids and derivatives thereof” (G.D. Searle & Co., priority 1992, dated 1999)
Where a name gives a salt, the structure may show the parent alone.

Columns and labels:
[1] = tested on: A23187-Induced LTB4 Production in Human Promyelocytic Leukemia HL-60 Cells; test: A23187-Induced LTB4 Production in Human Promyelocytic Leukemia HL-60 Cells (HL-60 Cell Assay); type: cell-based; design: key to HL-60 Cell Assay % Inhibition: I: inactive at that concentration; conditions: for IC50: A23187-stimulated HL-60 cells, LTB4
From the text: A23187-Induced LTB4 Production in Human Promyelocytic Leukemia HL-60 Cells.
Materials: Calcium ionophore A23187 was obtained from Calbiochem (La Jolla, Calif.). Trans-stilbene oxide was obtained from Sigma (St. Louis, Mis.). Hanks' balanced salt solution (HBSS) (10× concentrate), 1M Hepes, and Dulbecco's modified Eagle medium were obtained from GIBCO Laboratories (Grand Island, N.Y.). Fetal bovine serum was obtained from HyClone Laboratories (Logan, Utah). The LTB4 and PGE2 radioimmunoassay antibodies were purchased from Amersham International plc (Amersham, UK) and NEN Research Products (N. Billerica, Mass.), respectively. Reagents for assay of lactate dehydrogenase (LDH) activity were purchased from Beckman (Carlsbad, Calif.).
Preparation of HL-60 Cells: HL-60 cells were cultured in Dulbecco's modified Eagle medium (supplemented with 20% fetal bovine serum, 20 mM Hepes, 100 U/ml penicillin and 100 mcg/ml streptomycin) and maintained at 37° C. in a humidified atmosphere of 5% CO2 in air. Cells from exponentially growing cultures were seeded at 3×10^5 cells/ml and induced to differentiate into granulocytes wth 0.8% (v/v) N,N-dimethylformamide for 4 days (1,2). Prior to assay, differentiated HL-60 cells were washed once with Hanks' balanced salt solution containing 0.35 mg/ml sodium bicarbonate and 10 mM Hepes, pH 7.3 (HBSS) and resuspended in HBSS at a concentration of 3×10^6 cells/ml. HL-60 cell viability was >95% as assessed by trypan blue exclusion.
HL-60 Cell Assay: DMSO or test compounds as 100× concentrates in DMSO were added in duplicate to 1.0 ml HL-60 cell suspensions (3×10^6cells) and preincubated at 37° C. for 10 minutes in a shaking water bath. After an additional 5 minute incubation with calcium ionophore A23187 (10 mcl @ 5×10^-4 M in DMSO), the cells were pelleted at 12,800×g for 15 seconds and the supernatant removed and stored at -20° C. for quantification of LTB4 or PGE2 via radioimmunoassay and LDH activity.
Statistical Methods: LTB4 and PGE2 data were expressed as percent inhibition of A23187-stimulated controls. For IC50 determinations, the 4 parameter logistic model was used where y is the percent inhibition response and x is the log10 concentration of the inhibitor: [formula] Nonlinear regression was performed using the SAS (3) procedure NLIN to obtain least squares estimates of the four parameters in the above equation: yx (maximum), Y0 (minimum), a (log10 IC50) and b (slope factor). Increases in mean LDH levels for A23187-stimulated cells in the presence of test compound were tested for significance using a one-tailed two sample Student's t-test.

LTA4 hydrolase = target: T1, LTA4 hydrolase (Rattus norvegicus, UniProt P30349); test: Leukotriene-A4 (LTA4) Hydrolase Enzyme Assay (inhibition of LTB4 production by rat neutrophil cytosol, RIA); type: biochemical, rat (male Sprague Dawley); conditions: for inhibition at 100 µM: 10^-4 M; for IC50: rat neutrophil cytosolic LTA4 hydrolase
T1 construct: the supernatant containing cytosolic LTA4 hydrolase was obtained; from tissue; host or cells: peritoneal neutrophils (90-95% pure, oyster-glycogen elicited) of male Sprague Dawley rats; 100,000 x G supernatant of the homogenate
T1 sequence (P30349 1-611): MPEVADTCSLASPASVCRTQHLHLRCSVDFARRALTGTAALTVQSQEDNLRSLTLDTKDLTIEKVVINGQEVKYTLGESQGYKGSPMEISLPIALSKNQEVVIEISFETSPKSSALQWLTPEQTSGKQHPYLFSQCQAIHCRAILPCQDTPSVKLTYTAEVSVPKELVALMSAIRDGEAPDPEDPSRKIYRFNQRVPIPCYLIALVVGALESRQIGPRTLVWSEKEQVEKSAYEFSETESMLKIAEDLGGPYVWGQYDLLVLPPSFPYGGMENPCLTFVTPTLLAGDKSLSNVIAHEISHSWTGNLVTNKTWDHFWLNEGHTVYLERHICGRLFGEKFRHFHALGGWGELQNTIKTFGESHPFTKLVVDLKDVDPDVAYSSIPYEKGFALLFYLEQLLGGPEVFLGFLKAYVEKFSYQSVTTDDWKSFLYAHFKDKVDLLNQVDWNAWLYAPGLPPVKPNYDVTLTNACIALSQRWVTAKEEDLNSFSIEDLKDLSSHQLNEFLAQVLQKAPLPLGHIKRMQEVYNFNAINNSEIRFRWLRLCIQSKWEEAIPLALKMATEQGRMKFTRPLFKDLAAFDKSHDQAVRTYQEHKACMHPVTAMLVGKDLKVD
From the text: Leukotriene --A4 Hydrolase Inhibition Materials
Leukotriene-A4 -methyl ester and leukotriene-A3 were purchased from Biomol (Cambridge). Trans-stilbene oxide, EDTA, phenylmethyl sulphonyl fluoride were purchased from Sigma (St. Louis). Eagles Basil Media was purchased from GIBCO (Grand Island). LTB4 radioimmunoassay kit was purchased from Amersham (Arlington Heights, Ill.) (#Trk. 840).
Methods were modified from those reported by Evans et al., Biochem. Biophys. Acta, 840:43-50 (1985).
Male Sprague Dawley (CD1) rats (250-400 gm bodyweight) were given oyster glycogen, 1 mg/ml in 0.9% NaCl, by intraperitoneal injection. The animals were sacrificed after 8-20 hours and the peritoneal cavity washed with 10 ml Eagles Basil Medium (pH 7.4, 25 mM HEPES, without glutamine). The collected peritoneal lavage fluid was centrifuged at 150×G, 15 minutes at 4° C. to isolate the neutrophils. The supernatant was removed and the cell pellet was resuspended in 20 cc 10 mM sodium phosphate buffer, pH 7.0 with 2 mM Na-EDTA and 1 mM phenylmethyl sulphonyl fluoride (PMSF).
Leukotriene-A4 Hydrolase Isolation
The cell suspensions, which were 90-95% neutrophils as determined by cytometry, were homogenized by a polytron at 4° C. with three 30 second bursts with cooling on ice in between. The homogenate was centrifuged at 100,000×G for 60 minutes, and the supernatant containing cytosolic LTA4 hydrolase was obtained.
LTA4 Methyl Ester Deesterificaiton
LTA4, the substrate for LTA4 hydrolase, is supplied as the stable methyl ester that must be hydrolized to the active form. LTA4 -methyl ester (5000 ng) was dried under a stream of super-dry Argon (Matheson) to which was added a 1 ml methanol: 10M NaOH (9.8:0.2 v/v). The mixture was stirred 3 hours at 4° C. and used immediately.
LTA4 Hydrolase Enzyme Assay
Supernatant containing LTA4 hydrolase, 0.5 ml, was added to 0.5 ml Tris-acetate buffer, pH 7.8, containing 1 mg/ml fatty-acid free BSA. The mixture was incubated 3 minutes at 37° C. with 0.1 ml containing different enzyme inhibitor and test compound concentrations in DMSO. LTA4, 25 ng in 20 μl methanol, was added and incubation with shaking continued at 37° C. for one minute. The reaction was quenched with 2 ml ice-cold ethanol. The quenched mixture was immediately frozen at -76° C. LTB4 levels were determined by radioimmunoassay (RIA) with a validated commercial kit. Various concentrations of potential enzyme inhibitors were evaluated for inhibition of LTB4 production using a standardized amount of enzyme and substrate. The amount of inhibitor necessary to reduce LTB4 production by fifty percent was calculated as the IC50 value for each inhibitor. IC50 values were determined by least square linear regression analysis from the average ±SEM for 4 experiments.

Structure (SMILES)	inhibition at 100 µM (LTA4 hydrolase) [%]	IC50 ([1]; Homo sapiens) [µM]	IC50 (LTA4 hydrolase) [µM]	HL-60 Cell Assay % Inhibition ([1]; 10^-5 M)	inhibition at 100 µM ([1]; Homo sapiens, HL-60, 10^-4 M) [%]	HL-60 Cell Assay % Inhibition ([1]; 10^-4 M)	inhibition at 10 µM ([1]; Homo sapiens, HL-60, 10^-5 M) [%]	inhibition at 1 µM ([1]; Homo sapiens, HL-60, 10^-6 M) [%]	HL-60 Cell Assay % Inhibition ([1]; 10^-6 M)	inhibition at 50 µM ([1]; Homo sapiens, HL-60, 5 × 10^-5 M) [%]
CCCCCCCCCCCCCC[C@@H]1O[C@H]1c1cccc(C(=O)OC)c1 (relative stereo) [Example 22, Methyl 3-(3-tetradecyloxiranyl)benzoate]	20	–	–	I	79	–	–	–	–	–
CCCCCCCCCCCC/C=C/C1OC1c1cccc(C(=O)OC)c1 (centres unmarked) [Example 1, Methyl 3-[3-(1E-tetradecenyl)oxiranyl]benzoate]	–	–	–	–	–	I	–	–	–	–
CCCCCCCCCC/C=C/C=C/C1OC1c1cccc(C(=O)OC)c1 (centres unmarked) [Example 4, Methyl 3-[3-(1E,3E-tetradecadienyl)oxiranyl]benzoate]	–	–	–	I	29	–	–	–	–	–

More lines, main results first:

inhibition at 100 µM (LTA4 hydrolase) [%]	IC50 ([1]; Homo sapiens) [µM]	IC50 (LTA4 hydrolase) [µM]	Structure (SMILES)	HL-60 Cell Assay % Inhibition ([1]; 10^-5 M)	inhibition at 100 µM ([1]; Homo sapiens, HL-60, 10^-4 M) [%]	HL-60 Cell Assay % Inhibition ([1]; 10^-4 M)	inhibition at 10 µM ([1]; Homo sapiens, HL-60, 10^-5 M) [%]	inhibition at 1 µM ([1]; Homo sapiens, HL-60, 10^-6 M) [%]	HL-60 Cell Assay % Inhibition ([1]; 10^-6 M)	inhibition at 50 µM ([1]; Homo sapiens, HL-60, 5 × 10^-5 M) [%]
40	2.8	–	CCCCCCCCCCCC/C=C/C1OC1c1cccc(C(=O)O)c1 (centres unmarked) [Example 1,Li^+ salt]	–	94	–	96	26	–	–
58	0.16	80	CCCCCCCCCC/C=C/C=C/C1OC1c1cccc(C(=O)O)c1 (centres unmarked) [Example 4,Li^+ salt]	–	88	–	89	77	–	–
85	15	2	CCCCCCCC/C=C/C=C/C=C/C1OC1c1cccc(C(=O)O)c1 (centres unmarked) [Example 7,Li^+ salt]	–	–	–	61	–	I	80
